We go through 19 compounds from ChEMBL document CHEMBL3400003, “Isoindoline-1,3-dione derivatives targeting cholinesterases: design, synthesis and biological evaluation of potential anti-Alzheimer's agents” (Bioorg Med Chem, 2015).

Data set [1] addresses Amyloid-beta precursor protein (Homo sapiens) (UniProt P05067). Briefly: Inhibition of recombinant human HFIP-pretreated Amyloid beta (1 to 42) (unknown origin) self-induced aggregation at 10 uM after 24 hrs by thioflavin T-based fluorometric assay.
Data set [2] addresses Acetylcholinesterase (Electrophorus electricus, UniProt O42275).
Another data set addresses Cholinesterase (Equus caballus, UniProt P81908).
Data set [3] deals with Cholinesterase (Equus caballus) (UniProt P81908). Briefly: Inhibition of BuChE in horse serum at 10 uM pre-incubated for 5 mins before addition of butyrylthiocholine iodide substrate by Ellman's assay. (In general: In Ellman's method for cholinesterases, released thiocholine reacts with DTNB.)
For data set [4], the target named is Acetylcholinesterase (Homo sapiens, UniProt P22303).
For data set [5] the following is noted: PAMPA.

Some results are limits rather than exact numbers.

Sequence of Amyloid-beta precursor protein (Homo sapiens) (P05067 whole entry): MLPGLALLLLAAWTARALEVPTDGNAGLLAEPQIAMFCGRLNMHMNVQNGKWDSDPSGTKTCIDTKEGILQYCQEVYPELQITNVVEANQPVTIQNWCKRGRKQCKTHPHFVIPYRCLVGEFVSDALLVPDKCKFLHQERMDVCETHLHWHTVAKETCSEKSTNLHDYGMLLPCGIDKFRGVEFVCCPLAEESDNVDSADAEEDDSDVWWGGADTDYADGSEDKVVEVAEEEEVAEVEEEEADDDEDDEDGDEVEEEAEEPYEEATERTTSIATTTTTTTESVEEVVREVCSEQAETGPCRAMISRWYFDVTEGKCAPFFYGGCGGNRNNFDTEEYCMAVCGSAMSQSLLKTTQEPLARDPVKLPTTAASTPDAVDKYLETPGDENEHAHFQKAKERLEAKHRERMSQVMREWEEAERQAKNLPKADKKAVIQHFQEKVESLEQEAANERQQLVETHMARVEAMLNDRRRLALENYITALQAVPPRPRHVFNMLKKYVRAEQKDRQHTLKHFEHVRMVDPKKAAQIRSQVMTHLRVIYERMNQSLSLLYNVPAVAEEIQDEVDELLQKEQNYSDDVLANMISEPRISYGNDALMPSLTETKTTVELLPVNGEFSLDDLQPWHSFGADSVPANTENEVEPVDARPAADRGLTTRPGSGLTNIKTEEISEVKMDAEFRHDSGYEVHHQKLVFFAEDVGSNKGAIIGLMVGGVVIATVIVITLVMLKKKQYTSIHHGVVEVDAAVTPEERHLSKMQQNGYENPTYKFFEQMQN
Sequence of Acetylcholinesterase (Homo sapiens, UniProt P22303) (P22303 whole entry): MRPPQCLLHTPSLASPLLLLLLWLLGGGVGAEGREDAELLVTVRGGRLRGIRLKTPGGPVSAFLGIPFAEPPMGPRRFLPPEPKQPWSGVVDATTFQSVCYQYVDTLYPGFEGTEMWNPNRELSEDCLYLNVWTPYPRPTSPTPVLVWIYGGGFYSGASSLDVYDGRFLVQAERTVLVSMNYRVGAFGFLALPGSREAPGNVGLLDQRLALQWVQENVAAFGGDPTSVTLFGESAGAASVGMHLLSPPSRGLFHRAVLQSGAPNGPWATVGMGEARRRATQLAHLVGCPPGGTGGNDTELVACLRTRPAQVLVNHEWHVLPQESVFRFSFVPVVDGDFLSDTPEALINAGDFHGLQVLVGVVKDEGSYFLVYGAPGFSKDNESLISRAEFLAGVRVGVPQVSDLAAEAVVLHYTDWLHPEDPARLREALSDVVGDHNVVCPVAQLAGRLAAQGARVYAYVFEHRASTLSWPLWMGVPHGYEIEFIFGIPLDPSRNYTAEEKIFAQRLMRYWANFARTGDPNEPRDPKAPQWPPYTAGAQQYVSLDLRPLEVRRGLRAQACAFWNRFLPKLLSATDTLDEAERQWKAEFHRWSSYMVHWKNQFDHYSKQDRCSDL
Sequence of Cholinesterase (P81908 whole entry): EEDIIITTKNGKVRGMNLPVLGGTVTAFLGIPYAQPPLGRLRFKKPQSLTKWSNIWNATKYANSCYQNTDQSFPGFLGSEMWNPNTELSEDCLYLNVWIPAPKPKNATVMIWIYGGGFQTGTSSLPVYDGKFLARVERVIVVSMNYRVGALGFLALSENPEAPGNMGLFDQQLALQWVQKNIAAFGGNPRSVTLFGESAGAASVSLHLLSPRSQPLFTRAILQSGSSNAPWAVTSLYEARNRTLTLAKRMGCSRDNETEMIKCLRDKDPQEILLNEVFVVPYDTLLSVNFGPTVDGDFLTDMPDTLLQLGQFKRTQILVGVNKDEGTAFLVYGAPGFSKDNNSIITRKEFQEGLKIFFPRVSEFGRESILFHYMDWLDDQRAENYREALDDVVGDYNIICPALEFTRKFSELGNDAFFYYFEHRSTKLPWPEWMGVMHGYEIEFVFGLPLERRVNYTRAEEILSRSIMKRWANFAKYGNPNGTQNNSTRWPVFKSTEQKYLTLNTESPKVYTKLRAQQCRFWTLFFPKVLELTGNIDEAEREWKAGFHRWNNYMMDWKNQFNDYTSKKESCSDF
Sequence of Cholinesterase (Equus caballus) (P81908 whole entry): as above
Sequence of Acetylcholinesterase (Electrophorus electricus, UniProt O42275) (O42275 whole entry): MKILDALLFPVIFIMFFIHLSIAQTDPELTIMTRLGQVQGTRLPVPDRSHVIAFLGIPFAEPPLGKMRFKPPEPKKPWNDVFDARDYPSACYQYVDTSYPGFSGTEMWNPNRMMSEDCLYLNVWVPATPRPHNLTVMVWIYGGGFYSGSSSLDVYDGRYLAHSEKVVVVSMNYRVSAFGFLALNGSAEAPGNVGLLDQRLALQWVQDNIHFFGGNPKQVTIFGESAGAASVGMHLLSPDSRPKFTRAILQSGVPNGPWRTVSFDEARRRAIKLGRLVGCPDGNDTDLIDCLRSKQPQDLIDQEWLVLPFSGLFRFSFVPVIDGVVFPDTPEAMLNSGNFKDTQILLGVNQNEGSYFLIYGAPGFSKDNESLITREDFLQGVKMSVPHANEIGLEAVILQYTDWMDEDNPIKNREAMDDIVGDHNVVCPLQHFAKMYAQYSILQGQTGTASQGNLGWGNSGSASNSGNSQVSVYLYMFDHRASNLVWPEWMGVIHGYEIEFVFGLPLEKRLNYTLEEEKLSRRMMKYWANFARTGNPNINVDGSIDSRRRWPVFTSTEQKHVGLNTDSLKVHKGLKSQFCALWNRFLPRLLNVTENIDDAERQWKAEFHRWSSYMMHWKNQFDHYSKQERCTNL

Consider `O=C1c2ccccc2C(=O)N1Cc1ccc(CNCc2cccc(Cl)c2)cc1`, for which the inhibition – broadly, the change of the read-out against control, counted positive when it falls – in data set [1] is less than 5%. In addition, the half-maximal inhibitory concentration (IC50) (as a rule, the point on the concentration scale where inhibition reaches its midpoint) at Acetylcholinesterase [2] came to 6.31 µM; at Cholinesterase, 1.32 µM.
For `CN(CCCCN1C(=O)c2ccccc2C1=O)Cc1cccc(Cl)c1`, the values for the inhibition in data set [3] and in data set [1] were less than 50% and less than 5%, respectively. The same compound showed an IC50 at Acetylcholinesterase [2] of 1.43 µM.
Regarding `CN(CCCCCCCN1C(=O)c2ccccc2C1=O)Cc1ccccc1F`, the inhibition in data set [1] was less than 5%. Besides, the IC50 amounted to 0.525 µM against Acetylcholinesterase [2], 7.16 µM against Cholinesterase and 0.625 µM on Acetylcholinesterase [4].
Take `CN(CCCCCCN1C(=O)c2ccccc2C1=O)Cc1cccc(Cl)c1`: in data set [1], the inhibition was less than 5%. Further, the results for the IC50 on Acetylcholinesterase [2], against Cholinesterase and on Acetylcholinesterase [4] were 0.095 µM, 2.44 µM and 1.19 µM, respectively.
Take `CN(CCCCCCCN1C(=O)c2ccccc2C1=O)Cc1cccc(Cl)c1`: the inhibition in data set [1] is less than 5%. For the same compound, the IC50 against Acetylcholinesterase [2] is 0.5 µM; against Cholinesterase, 1.5 µM; against Acetylcholinesterase [4], 1.3 µM.
`CN(CCCCN1C(=O)c2ccccc2C1=O)Cc1ccccc1F`: the inhibition was less than 50% in data set [3] and less than 5% in data set [1]. In addition, the IC50 on Acetylcholinesterase [2] came out at 1.52 µM.
In the case of `CN(CCCCCCCCN1C(=O)c2ccccc2C1=O)Cc1ccccc1F`, the inhibition in data set [1] was less than 5%. Moreover, the figures for the IC50 on Acetylcholinesterase [2], against Cholinesterase and against Acetylcholinesterase [4] were 0.661 µM, 4.68 µM and 0.644 µM, respectively.
Regarding `CN(CCCCCN1C(=O)c2ccccc2C1=O)Cc1cccc(Cl)c1`, in data set [1], the inhibition was less than 5%. In addition, the IC50 turned out to be 0.11 µM on Acetylcholinesterase [2], 5.83 µM against Cholinesterase and 0.537 µM against Acetylcholinesterase [4].
With `CN(CCCCN1C(=O)c2ccccc2C1=O)Cc1ccccc1`, the inhibition in data set [3] is less than 50%; in data set [1], less than 5%. Inhibition on Acetylcholinesterase [2] was half-maximal at 2.33 µM (IC50).
On to `CN(CCCCCN1C(=O)c2ccccc2C1=O)Cc1ccccc1F`, for which the inhibition in data set [3] was less than 50%; in data set [1], less than 5%. Also, the IC50 against Acetylcholinesterase [2] was found to be 0.067 µM; on Acetylcholinesterase [4], 0.525 µM.
Regarding `CN(CCCCCN1C(=O)c2ccccc2C1=O)Cc1ccccc1`, the inhibition is less than 50% in data set [3] and less than 5% in data set [1]. In addition, the IC50 is 0.08 µM against Acetylcholinesterase [2] and 0.361 µM against Acetylcholinesterase [4].
Turning to `CC(=O)[C@H]1CC[C@H]2[C@@H]3CCC4=CC(=O)CC[C@]4(C)[C@H]3CC[C@]12C` [PROGESTERONE], the “log Pe” value in data set [5] is -5.1.
As for `CN(CCCCCCCCN1C(=O)c2ccccc2C1=O)Cc1ccccc1`, the inhibition in data set [1] is less than 5%. Also, the figures for the half-maximal inhibitory concentration (IC50) at Acetylcholinesterase [2], against Cholinesterase and at Acetylcholinesterase [4] were 0.139 µM, 0.543 µM and 0.86 µM, respectively.
On to `CN(CCCCCCN1C(=O)c2ccccc2C1=O)Cc1ccccc1F`, for which the inhibition in data set [1] was less than 5%. Moreover, the IC50 was 0.075 µM on Acetylcholinesterase [2], 10.5 µM against Cholinesterase and 1.99 µM against Acetylcholinesterase [4].
In the case of `O=C1c2ccccc2C(=O)N1Cc1ccc(CNCc2ccccc2F)cc1`, the inhibition in data set [1] was less than 5%. Moreover, the IC50 came to 2.58 µM against Acetylcholinesterase [2] and 2.9 µM at Cholinesterase.
`CN(CCCCCCCN1C(=O)c2ccccc2C1=O)Cc1ccccc1`: the inhibition in data set [1] is less than 5%. The IC50 against Acetylcholinesterase [2] came to 0.172 µM; against Cholinesterase it was 1.01 µM; at Acetylcholinesterase [4], 0.997 µM.
Regarding `O=C1c2ccccc2C(=O)N1Cc1ccc(CNCc2ccccc2)cc1`, the inhibition in data set [1] is less than 5%. The compound further had an IC50 against Cholinesterase of 2.08 µM.
Regarding `CN(CCCCCCN1C(=O)c2ccccc2C1=O)Cc1ccccc1`, the inhibition was less than 50% in data set [3] and less than 5% in data set [1]. The concentration for half-maximal inhibition (IC50) against Acetylcholinesterase [2] was found to be 0.089 µM; against Acetylcholinesterase [4], 1.83 µM.
Turning to `CN(CCCCCCCCN1C(=O)c2ccccc2C1=O)Cc1cccc(Cl)c1`, the inhibition in data set [1] was less than 5%. Also, the IC50 at Acetylcholinesterase [2] is 1.36 µM; on Cholinesterase, 0.909 µM; at Acetylcholinesterase [4] it was 1.04 µM.
